Measurements published in PMC8351955, “Targeting Mycobacterium tuberculosis response to environmental cues for the development of effective antitubercular drugs” (PLoS Biology, 2021).
Where “and” joins values, the source holds several entries; their conditions need not be identical. Equal values may be shown once. Read-outs that look alike come from different tables or passages of the source.

Assays:
[1] = tested on: Mtb growth in J774 murine macrophage-like cells; assay: microbe, parasite or virus in culture; format: cell-based, Mycobacterium tuberculosis; conditions: for NPI (Mtb growth in J774 cells), average: Fig 1F
CYP2D6 = CYP2D6 (Homo sapiens, UniProt P10635); assay: Human cytochrome P450 inhibition, 2D6; format: in vitro ADME; conditions: read-out: % inhibition of CYP 2D6
Procedure: (§1) Assays examining mouse and human liver microsomal stability, kinetic aqueous solubility, mouse and human plasma protein binding and stability, and human cytochrome P450 inhibition characteristics of the compounds were run by BioDuro (San Diego, CA), using standard protocols as previously described [37]. hERG inhibition assays were also performed by BioDuro.

Mtb = assay: Mouse Mtb infection, C3HeB/FeJ model, oral C6; format: in vivo, C3HeB/FeJ mice; conditions: for CFU/ml: individual values
Procedure: C3HeB/FeJ wild-type mice (The Jackson Laboratory) were infected intranasally with 10^3 CFUs of Mtb (35 μl), under light anesthesia with 2% isoflurane. […] The next day, the suspension was homogenized by bead beating with 5 mm steel beads in a TOMY microtube mixer (2 × 20 seconds) and stored at 4°C until use. […] Administration began at 2 or 6 weeks post-infection as indicated. At time of sacrifice, the left lobe and accessory right lobe of the lung were homogenized in PBS + 0.05% Tween 80 and serial dilutions plated on 7H10 agar plates with 100 μg/ml cycloheximide for bacterial load determination. The remaining 3 right lobes were fixed in 4% PFA in PBS. One lobe was used for histological analysis by standard hematoxylin and eosin (H&E) staining (Tufts Comparative Pathology Services). A Nikon Eclipse E400 with a SPOT insight color digital camera was used to image the histology samples.

[2] = tested on: Mtb growth in cholesterol media; design: method as in PubChem AID 1259343; conditions: ref PubChem AID 1259343; cited from earlier work
[3] = Human liver microsomal stability; format: in vitro ADME; conditions: human liver microsomes; read-out: half-life (t1/2) in human liver microsomes
[4] = Mouse liver microsomal stability; format: in vitro ADME; conditions: mouse liver microsomes; read-out: half-life (t1/2) in mouse liver microsomes
Procedure: as §1

Human plasma stability = format: in vitro ADME; conditions: 5-h incubation
Procedure: as §1

CYP1A2 = target: T1, CYP1A2 (Homo sapiens, UniProt P05177); assay: Human cytochrome P450 inhibition, 1A2; format: in vitro ADME; conditions: read-out: % inhibition of CYP 1A2
T1 sequence (P05177 1-516): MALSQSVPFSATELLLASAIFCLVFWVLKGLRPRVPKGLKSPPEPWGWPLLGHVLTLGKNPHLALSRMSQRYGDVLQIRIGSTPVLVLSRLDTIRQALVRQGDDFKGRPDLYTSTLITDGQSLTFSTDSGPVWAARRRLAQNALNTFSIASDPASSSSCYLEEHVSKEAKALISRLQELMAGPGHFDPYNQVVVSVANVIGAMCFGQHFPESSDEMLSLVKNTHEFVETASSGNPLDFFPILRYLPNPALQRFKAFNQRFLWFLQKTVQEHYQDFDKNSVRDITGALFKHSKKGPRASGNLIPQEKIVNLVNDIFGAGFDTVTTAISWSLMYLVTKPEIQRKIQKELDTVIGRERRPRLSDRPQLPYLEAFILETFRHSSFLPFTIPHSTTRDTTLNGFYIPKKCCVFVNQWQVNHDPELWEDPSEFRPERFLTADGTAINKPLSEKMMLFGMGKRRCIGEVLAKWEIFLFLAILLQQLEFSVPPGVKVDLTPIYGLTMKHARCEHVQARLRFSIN
Procedure: as §1

[5] = tested on: CDC1551(rv2390c′::GFP) reporter Mtb strain; conditions: for Normalized % induction: Fig. 2C, DMSO = 100

Sequence of CYP2D6 (P10635 whole entry): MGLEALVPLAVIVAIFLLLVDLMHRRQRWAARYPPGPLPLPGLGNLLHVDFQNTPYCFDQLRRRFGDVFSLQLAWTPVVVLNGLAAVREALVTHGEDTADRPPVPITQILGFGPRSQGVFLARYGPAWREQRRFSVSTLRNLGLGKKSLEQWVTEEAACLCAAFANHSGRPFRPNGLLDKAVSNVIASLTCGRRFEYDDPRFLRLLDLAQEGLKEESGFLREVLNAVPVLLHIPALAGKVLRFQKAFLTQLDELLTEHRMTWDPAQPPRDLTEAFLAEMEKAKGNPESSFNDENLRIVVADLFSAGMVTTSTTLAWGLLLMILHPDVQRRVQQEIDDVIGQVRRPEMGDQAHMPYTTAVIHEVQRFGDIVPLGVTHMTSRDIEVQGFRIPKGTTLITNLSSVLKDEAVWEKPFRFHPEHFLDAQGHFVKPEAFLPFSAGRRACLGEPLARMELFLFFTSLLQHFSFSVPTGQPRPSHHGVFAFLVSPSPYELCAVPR

Structure (SMILES): CCSc1ncc(CN2CCN(c3nc4ccccc4o3)CC2)cn1 [C6, 2-(4-((2-(ethylthio)pyrimidin-5-yl)methyl)piperazin-1-yl)benzo[d]oxazole]
- NPI (Mtb growth in J774 cells), average ([1]; 0.078125 µM, 5 µM rifampicin = 100% inhibition): -7.09%
- NPI (Mtb growth in J774 cells), average ([1]; 0.15625 µM): -2.13%
- NPI (Mtb growth in J774 cells), average ([1]; 0.3125 µM): -0.93%
- NPI (Mtb growth in J774 cells), average ([1]; 0.625 µM): -0.1%
- NPI (Mtb growth in J774 cells), average ([1]; 1.25 µM): 17.45%
- NPI (Mtb growth in J774 cells), average ([1]; 2.5 µM): 26.3%
- NPI (Mtb growth in J774 cells), average ([1]; 5 µM): 38%
- NPI (Mtb growth in J774 cells), average ([1]; 10 µM): 40.45%
- NPI (Mtb growth in J774 cells), average ([1]; 20 µM): 53.6%
- inhibition at 10 µM ([1]; Mycobacterium tuberculosis, J774, 144 h, read-out: J774 tertiary assay % inhibition compared to Rif at 10 µM compound): 40.5 ± 0.6%
- inhibition at 20 µM ([1]; Mycobacterium tuberculosis, J774, 144 h, read-out: J774 tertiary assay % inhibition compared to Rif at 20 µM compound): 53.6 ± 2.7%
- inhibition at 10 µM (CYP2D6): 10.5%
- Lung bacterial load, short-term infection model (Mtb; 250 mg/kg oral gavage 5 times a week for 2 weeks, started 2 weeks post-infection): significantly inhibited Mtb growth
- Lung bacterial load, longer-term infection model (Mtb; 250 mg/kg oral gavage for 2 or 4 weeks, started 6 weeks post-infection): significant decrease in bacterial load
- Lung histology, short-term infection model (Mtb; 250 mg/kg, 2-week treatment from 2 weeks post-infection): less cellular infiltration
- Lung histopathology, longer-term infection model (Mtb; 250 mg/kg, 2 or 4 weeks treatment from 6 weeks post-infection): improved histopathology
- CFU/ml (Mtb; Fig. 4A, 4 weeks (pre-treatment 2 weeks)): 5260000 CFU/ml and 1940000 CFU/ml and 7340000 CFU/ml and 338000 CFU/ml and 3180000 CFU/ml and 1920000 CFU/ml and 1820000 CFU/ml and 13560000 CFU/ml
- CFU/ml (Mtb; Fig. 4C, 8 weeks (pre-treatment 6 weeks)): 38000 CFU/ml and 860000 CFU/ml and 9200000 CFU/ml and 3340000 CFU/ml and 4100000 CFU/ml and 2340000 CFU/ml and 68000 CFU/ml and 304000 CFU/ml and 270000000 CFU/ml and 3980000 CFU/ml and 234000 CFU/ml and 64000 CFU/ml and 21800 CFU/ml and 62000 CFU/ml
- CFU/ml (Mtb; Fig. 4C, 10 weeks (pre-treatment 6 weeks)): 338000 CFU/ml and 29000 CFU/ml and 2660 CFU/ml and 228000 CFU/ml and 188000 CFU/ml and 43000000 CFU/ml and 112000 CFU/ml and 17800000 CFU/ml and 926000 CFU/ml and 42800000 CFU/ml and 132000 CFU/ml and 118000 CFU/ml and 720000 CFU/ml
- Call in screen for inhibition of Mtb growth in cholesterol media [2]: positive for growth inhibition
- half-life [3]: 37.6 min
- half-life [4]: 48.5 min
- remaining at 5 h (Human plasma stability): 94.6%
- inhibition at 10 µM (CYP1A2): < 1%
- Normalized % induction ([5]; average of 3 replicates): 141.019%
- Normalized % induction ([5]; individual replicates): 121.516% and 141.974% and 159.566%
- Ability to increase rv2390c′::GFP reporter signal in high [Cl−] ([5]; pH 7): increased rv2390c′::GFP reporter signal
